Measured values reported in patent US9944602B2, “Piperidinone herbicides” (E. I. DU PONT DE NEMOURS AND COMPANY, priority 2014, dated 2018).

How the values were obtained:
Assay type in all cases: in vivo
Settings in all cases: Table C, scale 0 to 100
[1] = test system: blackgrass (Alopecurus myosuroides); experiment: Test C postemergence blackgrass
From the text: (§1) Seeds of plant species selected from blackgrass (Alopecurus myosuroides), ryegrass, Italian (Italian ryegrass, Lolium multiflorum), wheat (winter wheat, Triticum aestivum), galium (catchweed bedstraw, Galium aparine), corn (Zea mays), crabgrass, large (large crabgrass, Digitaria sanguinalis), foxtail, giant (giant foxtail, Setaria faberii), johnsongrass (Sorghum halepense), lambsquarters (Chenopodium album), morningglory (Ipomoea coccinea), yellow (yellow nutsedge, Cyperus esculentus), pigweed (Amaranthus retroflexus), ragweed (common ragweed, Ambrosia elatior), soybean (Glycine max), barnyardgrass (Echinochloa crus-galli), oilseed rape (Brassica napus), waterhemp (common waterhemp, Amaranthus rudis), and velvetleaf (Abutilon theophrasti) were planted into a blend of loam soil and sand and treated preemergence with test chemicals formulated in a non-phytotoxic solvent mixture which included a surfactant. At the same time, plants selected from these crop and weed species and also chickweed (common chickweed, Stellaria media), kochia (Kochia scoparia), and oat, wild (wild oat, Avena fatua) were planted in pots containing Sunshine Redi-Earth® planting medium comprising spaghnum peat moss, vermiculite, starter nutrients and dolomitic limestone and treated with postemergence applications of test chemicals formulated in the same manner. Plants ranged in height from 2 to 18 cm (1- to 4-leaf stage) for postemergence treatments. Treated plants and controls were maintained in a greenhouse for 13 to 15 days, after which time all species were compared to controls and visually evaluated. Plant response ratings, summarized in Table C, are based on a scale of 0 to 100 where 0 is no effect and 100 is complete control. A dash (-) response means no test result.

soybean (Glycine max) [2] = experiment: Test C postemergence soybean
From the text: as §1

[3] = test system: oat, wild (wild oat, Avena fatua); experiment: Test C postemergence oat, wild
From the text: as §1

[4] = test system: galium (catchweed bedstraw, Galium aparine); experiment: Test C postemergence galium
From the text: as §1

[5] = test system: oilseed rape (Brassica napus); experiment: Test C postemergence oilseed rape
From the text: as §1

[6] = test system: chickweed (common chickweed, Stellaria media); experiment: Test C postemergence chickweed
From the text: as §1

[7] = test system: waterhemp (common waterhemp, Amaranthus rudis); experiment: Test C preemergence waterhemp
From the text: as §1

[8] = test system: foxtail, giant (giant foxtail, Setaria faberii); experiment: Test C preemergence foxtail, giant
From the text: as §1

[9] = test system: lambsquarters (Chenopodium album); experiment: Test C preemergence lambsquarters
From the text: as §1

[10] = test system: oilseed rape (Brassica napus); experiment: Test C preemergence oilseed rape
From the text: as §1

[11] = test system: yellow (yellow nutsedge, Cyperus esculentus); experiment: Test C preemergence yellow nutsedge
From the text: as §1

corn (Zea mays) = experiment: Test C preemergence corn
From the text: as §1

[12] = test system: johnsongrass (Sorghum halepense); experiment: Test C preemergence johnsongrass
From the text: as §1

soybean (Glycine max) [13] = experiment: Test C preemergence soybean
From the text: as §1

[14] = test system: ryegrass, Italian (Italian ryegrass, Lolium multiflorum); experiment: Test C preemergence ryegrass, Italian
From the text: as §1

Which results are given for `O=C1NCCC(c2cccc(C(F)(F)F)c2)C1C(=O)Nc1ccccc1Cl` (racemic) [Compound 17]?
Plant response rating ([1]; 31 g ai/ha): 0; Plant response rating ([1]; 62 g ai/ha): 0; Plant response rating ([1]; 125 g ai/ha): 0; Plant response rating ([1]; 250 g ai/ha): 0; Plant response rating (soybean (Glycine max) [2]; 31 g ai/ha): 0; Plant response rating (soybean (Glycine max) [2]; 62 g ai/ha): 10; Plant response rating (soybean (Glycine max) [2]; 125 g ai/ha): 0; Plant response rating (soybean (Glycine max) [2]; 250 g ai/ha): 0; Plant response rating ([3]; 31 g ai/ha): 0; Plant response rating ([3]; 62 g ai/ha): 0; Plant response rating ([3]; 125 g ai/ha): 0; Plant response rating ([3]; 250 g ai/ha): 0; Plant response rating ([4]; 31 g ai/ha): 0; Plant response rating ([4]; 62 g ai/ha): 0; Plant response rating ([4]; 125 g ai/ha): 0; Plant response rating ([4]; 250 g ai/ha): 0; Plant response rating ([5]; 31 g ai/ha): 0; Plant response rating ([5]; 62 g ai/ha): 0; Plant response rating ([5]; 125 g ai/ha): 0; Plant response rating ([5]; 250 g ai/ha): 0; Plant response rating ([6]; 31 g ai/ha): 0; Plant response rating ([6]; 62 g ai/ha): 0; Plant response rating ([6]; 125 g ai/ha): 0; Plant response rating ([6]; 250 g ai/ha): 5

With `O=C1NCCC(c2cccc(C(F)(F)F)c2)C1C(=O)Nc1ccc(F)c(F)c1F` (racemic) [Compound 28] as the molecule, how does the Plant response rating ([7]; 31 g ai/ha) read?
Its Plant response rating is 0.

And the Plant response rating ([7]; 125 g ai/ha)?
The Plant response rating was 0.

What about the Plant response rating ([7]; 250 g ai/ha) of the same molecule?
Its Plant response rating is 60.

And the Plant response rating ([8]; 31 g ai/ha)?
Its Plant response rating is 60.

What about the Plant response rating ([8]; 62 g ai/ha) of the same molecule?
The Plant response rating was 85.

And the Plant response rating ([8]; 125 g ai/ha)?
Its Plant response rating is 95.

What about the Plant response rating ([8]; 250 g ai/ha) of the same molecule?
The Plant response rating was 95.

And the Plant response rating ([9]; 31 g ai/ha)?
The Plant response rating was 5.

And the Plant response rating ([9]; 62 g ai/ha)?
Its Plant response rating is 5.

And the Plant response rating ([9]; 125 g ai/ha)?
Its Plant response rating is 5.

And the Plant response rating ([9]; 250 g ai/ha)?
Its Plant response rating is 15.

What about the Plant response rating ([10]; 31 g ai/ha) of the same molecule?
The Plant response rating was 0.

What about the Plant response rating ([10]; 62 g ai/ha) of the same molecule?
Its Plant response rating is 0.

And the Plant response rating ([10]; 125 g ai/ha)?
Its Plant response rating is 0.

What about the Plant response rating ([10]; 250 g ai/ha) of the same molecule?
The Plant response rating was 0.

What about the Plant response rating ([11]; 31 g ai/ha) of the same molecule?
The Plant response rating was 0.

What about the Plant response rating ([11]; 62 g ai/ha) of the same molecule?
Its Plant response rating is 0.

And the Plant response rating ([11]; 125 g ai/ha)?
Its Plant response rating is 10.

What about the Plant response rating ([11]; 250 g ai/ha) of the same molecule?
The Plant response rating was 50.

What about the Plant response rating (corn (Zea mays); 31 g ai/ha) of the same molecule?
Its Plant response rating is 0.

And the Plant response rating (corn (Zea mays); 62 g ai/ha)?
Its Plant response rating is 0.

And the Plant response rating (corn (Zea mays); 125 g ai/ha)?
The Plant response rating was 30.

And the Plant response rating (corn (Zea mays); 250 g ai/ha)?
Its Plant response rating is 55.

And the Plant response rating ([12]; 31 g ai/ha)?
Its Plant response rating is 0.

What about the Plant response rating ([12]; 62 g ai/ha) of the same molecule?
Its Plant response rating is 0.

What about the Plant response rating ([12]; 125 g ai/ha) of the same molecule?
Its Plant response rating is 0.

And the Plant response rating ([12]; 250 g ai/ha)?
The Plant response rating was 10.

What about the Plant response rating (soybean (Glycine max) [13]; 31 g ai/ha) of the same molecule?
Its Plant response rating is 0.

And the Plant response rating (soybean (Glycine max) [13]; 62 g ai/ha)?
The Plant response rating was 0.

What about the Plant response rating (soybean (Glycine max) [13]; 125 g ai/ha) of the same molecule?
Its Plant response rating is 0.

What about the Plant response rating (soybean (Glycine max) [13]; 250 g ai/ha) of the same molecule?
Its Plant response rating is 0.

And the Plant response rating ([14]; 31 g ai/ha)?
Its Plant response rating is 0.

What about the Plant response rating ([14]; 62 g ai/ha) of the same molecule?
Its Plant response rating is 0.

What about the Plant response rating ([14]; 125 g ai/ha) of the same molecule?
Its Plant response rating is 0.

And the Plant response rating ([14]; 250 g ai/ha)?
Its Plant response rating is 35.
